In US11390604B2 (Hoffmann-La Roche Inc., priority 2019, dated 2022):
Where a name gives a salt, the structure may show the parent alone.

What follows are molecules tested on Acinetobacter baumannii ATCC 17961 (assay: Antimicrobial susceptibility testing: 90% growth inhibitory concentration (IC90) determination). Conditions: ATCC17961, Acinetobacter baumannii ATCC 17961, Iso-Sensitest broth, read-out: ATCC 17961 IC90.
Format: cell-based
In short: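 Broth microdilution in Iso-Sensitest medium, twofold series (e.g. 50 to 0.097 μM final), ~5×10^5 CFU/ml inoculum, 35±2 °C. OD600 read every 20 min over 16 h. IC90 derived from growth inhibition during logarithmic phase.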

Structure (SMILES)	IC90 [nM]
CCc1cc(NC(=O)c2ncc(-c3cn(CC#N)nc3C(F)(F)F)n2C)ccc1C(=O)N1CCN(C(=O)N2CC[C@H](C)[C@H](N)C2)CC1 (racemic) [Example 137, 5-[1-(cyanomethyl)-3-(trifluoromethyl)pyrazol-4-yl]-N-[3-ethyl-4-[4-[rac-(3R,4R)-3-amino-4-methylpiperidine-1-carbonyl]piperazine-1-carbonyl]phenyl]-1-methylimidazole-2-carboxamide;formic acid]	845
Cn1c(-c2cn(C3CC3)nc2C(F)(F)F)cnc1C(=O)Nc1ccc(C(=O)N2CCN(C(=O)[C@@H]3CCNC3)CC2)c(Cl)c1 [Example 229, (R)-N-(3-chloro-4-(4-(pyrrolidine-3-carbonyl)piperazine-1-carbonyl)phenyl)-5-(1-cyclopropyl-3-(trifluoromethyl)-1H-pyrazol-4-yl)-1-methyl-1H-imidazole-2-carboxamide hydrochloride]	263
Cn1c(-c2cn(C3CC3)nc2C(F)(F)F)cnc1C(=O)Nc1ccc(C(=O)N2CCN(C(=O)CN)CC2)c(Cl)c1 [Example 200, N-(3-chloro-4-(4-glycylpiperazine-1-carbonyl)phenyl)-5-(1-cyclopropyl-3-(trifluoromethyl)-1H-pyrazol-4-yl)-1-methyl-1H-imidazole-2-carboxamide hydrochloride]	215
Cn1c(-c2cn(C3CC3)nc2C(F)(F)F)cnc1C(=O)Nc1ccc(C(=O)N2CCN(C(=O)[C@@H]3C[C@@H](O)CN3)CC2)c(Cl)c1 [Example 321, N-(3-chloro-4-(4-((2S,4R)-4-hydroxypyrrolidine-2-carbonyl)piperazine-1-carbonyl)phenyl)-5-(1-cyclopropyl-3-(trifluoromethyl)-1H-pyrazol-4-yl)-1-methyl-1H-imidazole-2-carboxamide hydrochloride]	403
Cn1c(-c2cn(C3CC3)nc2C(F)(F)F)cnc1C(=O)Nc1ccc(C(=O)N[C@H]2[C@@H]3CN(C(=O)N4CC[C@@H](N)C4)C[C@@H]32)c(Cl)c1 [Example 322, N-(4-((exo-3-((R)-3-aminopyrrolidine-1-carbonyl)-3-azabicyclo[3.1.0]hexan-6-yl)carbamoyl)-3-chlorophenyl)-5-(1-cyclopropyl-3-(trifluoromethyl)-1H-pyrazol-4-yl)-1-methyl-1H-imidazole-2-carboxamide formate]	407
Cn1c(-c2cn(C3CC3)nc2C(F)(F)F)cnc1C(=O)Nc1ccc(C(=O)N2CCN(C(=O)[C@@H]3C[C@H](F)CN3)CC2)c(Cl)c1 [Example 367, N-(3-chloro-4-(4-((2S,4S)-4-fluoropyrrolidine-2-carbonyl)piperazine-1-carbonyl)phenyl)-5-(1-cyclopropyl-3-(trifluoromethyl)-1H-pyrazol-4-yl)-1-methyl-1H-imidazole-2-carboxamide hydrochloride]	484
CCc1cc(NC(=O)c2ncc(-c3cn(CC#N)nc3C(F)(F)F)n2C)ccc1C(=O)N1CCN(C(=O)N2CC3(CC(N)C3)C2)CC1 [Example 134, N-[4-[4-(6-amino-2-azaspiro[3.3]heptane-2-carbonyl)piperazine-1-carbonyl]-3-ethylphenyl]-5-[1-(cyanomethyl)-3-(trifluoromethyl)pyrazol-4-yl]-1-methylimidazole-2-carboxamide;formic acid]	860
Cn1c(-c2cn(CC(F)F)nc2C(F)(F)F)cnc1C(=O)Nc1ccc(C(=O)N2CCNCC2)c(Cl)c1 [Example 336, N-(3-chloro-4-(piperazine-1-carbonyl)phenyl)-5-(1-(2,2-difluoroethyl)-3-(trifluoromethyl)-1H-pyrazol-4-yl)-1-methyl-1H-imidazole-2-carboxamide formate]	426
Cn1c(-c2cn(C3CC3(F)F)nc2C(F)(F)F)cnc1C(=O)Nc1ccc(C(=O)NC2CNCC2O)c(Cl)c1 (stereo not shown) [Example 341, N-(3-chloro-4-((4-hydroxypyrrolidin-3-yl)carbamoyl)phenyl)-5-(1-(2,2-difluorocyclopropyl)-3-(trifluoromethyl)-1H-pyrazol-4-yl)-1-methyl-1H-imidazole-2-carboxamide formate]	430
Cn1c(-c2cn(CC(F)F)nc2C(F)(F)F)cnc1C(=O)Nc1ccc(C(=O)N2CCN(C(=O)N[C@H]3C[C@@H](N)C3)CC2)c(F)c1 [Example 272, rac-N-((1s,3s)-3-aminocyclobutyl)-4-(4-(5-(1-(2,2-difluoroethyl)-3-(trifluoromethyl)-1H-pyrazol-4-yl)-1-methyl-1H-imidazole-2-carboxamido)-2-fluorobenzoyl)piperazine-1-carboxamide]	335
CCc1cc(NC(=O)c2ncc(-c3cn(CC(F)F)nc3C(F)(F)F)n2C)ccc1C(=O)NCCCCCN [Example 356, N-(4-((5-aminopentyl)carbamoyl)-3-ethylphenyl)-5-(1-(2,2-difluoroethyl)-3-(trifluoromethyl)-1H-pyrazol-4-yl)-1-methyl-1H-imidazole-2-carboxamide hydrochloride]	466
Cn1c(-c2cn(C3CC3)nc2C(F)(F)F)cnc1C(=O)Nc1ccc(C(=O)N2CCN(C(=O)C3CNCCC3O)CC2)c(Cl)c1 (stereo not shown) [Example 311, N-[3-chloro-4-[4-(4-hydroxypiperidine-3-carbonyl)piperazine-1-carbonyl]phenyl]-5-[1-cyclopropyl-3-(trifluoromethyl)pyrazol-4-yl]-1-methylimidazole-2-carboxamide;hydrochloride]	382
Cc1cc(NC(=O)c2ncc(-c3cn(CC#N)nc3C(F)(F)F)n2C)ccc1C(=O)N1CCN(C(=O)C2CCNCC2)CC1 [Example 30, 5-(1-(cyanomethyl)-3-(trifluoromethyl)-1H-pyrazol-4-yl)-1-methyl-N-(3-methyl-4-(4-(piperidine-4-carbonyl)piperazine-1-carbonyl)phenyl)-1H-imidazole-2-carboxamide]	867
Cn1c(-c2cn([C@@H]3CC3(F)F)nc2C(F)(F)F)cnc1C(=O)Nc1ccc(C(=O)N[C@H]2[C@@H]3CN(C(=O)N[C@H]4CNC[C@@H]4O)C[C@@H]32)c(Cl)c1 [Example 380, (1R,5S,6R)-6-(2-chloro-4-(5-(1-((R)-2,2-difluorocyclopropyl)-3-(trifluoromethyl)-1H-pyrazol-4-yl)-1-methyl-1H-imidazole-2-carboxamido)benzamido)-N-((3S,4S)-4-hydroxypyrrolidin-3-yl)-3-azabicyclo[3.1.0]hexane-3-carboxamide]	104
Cn1c(-c2cn(Cc3cccnc3)nc2C(F)(F)F)cnc1C(=O)Nc1ccc(C(=O)N2CCN(C(=O)[C@H]3CCNC3)CC2)c(Cl)c1 [Example 70, N-[3-chloro-4-[4-[(3S)-pyrrolidine-3-carbonyl]piperazine-1-carbonyl]phenyl]-1-methyl-5-[1-(pyridin-3-ylmethyl)-3-(trifluoromethyl)pyrazol-4-yl]imidazole-2-carboxamide]	497
CCc1cc(NC(=O)c2ncc(-c3cn(Cc4cccnc4)nc3C(F)(F)F)n2C)ccc1C(=O)N1CCN(C(=O)[C@@H]2CCNC2)CC1 [Example 161, N-[3-ethyl-4-[4-[(3R)-pyrrolidine-3-carbonyl]piperazine-1-carbonyl]phenyl]-1-methyl-5-[1-(pyridin-3-ylmethyl)-3-(trifluoromethyl)pyrazol-4-yl]imidazole-2-carboxamide;formic acid]	1280
CCc1cc(NC(=O)c2ncc(-c3cn(CC#N)nc3C(F)(F)F)n2C)ccc1C(=O)N1CCN(C(=O)C2CCNCC2)CC1 [Example 128, 5-[1-(cyanomethyl)-3-(trifluoromethyl)pyrazol-4-yl]-N-[3-ethyl-4-[4-(piperidine-4-carbonyl)piperazine-1-carbonyl]phenyl]-1-methylimidazole-2-carboxamide;formic acid]	1040
Cn1c(-c2cn(C3CC3)nc2C(F)(F)F)cnc1C(=O)Nc1ccc(C(=O)N2CCN(C(=O)C(O)CN)CC2)c(Cl)c1 (stereo not shown) [Example 270, N-[4-[4-(3-amino-2-hydroxypropanoyl)piperazine-1-carbonyl]-3-chlorophenyl]-5-[1-cyclopropyl-3-(trifluoromethyl)pyrazol-4-yl]-1-methylimidazole-2-carboxamide;hydrochloride]	333
Cn1c(-c2cn(CC3CCC3)nc2C(F)(F)F)cnc1C(=O)Nc1ccc(C(=O)N2CCN(C(=O)[C@H]3C[C@H](N)C3)CC2)c(Cl)c1 [Example 276, rac-N-(4-(4-((1r,3r)-3-aminocyclobutane-1-carbonyl)piperazine-1-carbonyl)-3-chlorophenyl)-5-(1-(cyclobutylmethyl)-3-(trifluoromethyl)-1H-pyrazol-4-yl)-1-methyl-1H-imidazole-2-carboxamide hydrochloride]	343
CCc1cc(NC(=O)c2ncc(-c3cn(CC(F)F)nc3C(F)(F)F)n2C)ccc1C(=O)N1CCN(C(=O)C2(O)CCNCC2)CC1 [Example 155, 5-[1-(2,2-difluoroethyl)-3-(trifluoromethyl)pyrazol-4-yl]-N-[3-ethyl-4-[4-(4-hydroxypiperidine-4-carbonyl)piperazine-1-carbonyl]phenyl]-1-methylimidazole-2-carboxamide;formic acid]	1140

Same assay, conditions: Acinetobacter baumannii, ATCC17961, read-out: ATCC 17961 IC90, Acinetobacter baumannii ATCC 17961, Iso-Sensitest broth

Structure (SMILES)	IC90 [nM]
Cn1c(-c2cn(C3CC3)nc2C(F)(F)F)cnc1C(=O)Nc1ccc(C(=O)N2CCN(C(=O)N[C@@H]3C[C@H](N)C3(C)C)CC2)c(Cl)c1 [Example 266, N-[(1R,3S)-3-amino-2,2-dimethylcyclobutyl]-4-[2-chloro-4-[[5-[1-cyclopropyl-3-(trifluoromethyl)pyrazol-4-yl]-1-methylimidazole-2-carbonyl]amino]benzoyl]pipera-zine-1-carboxamide;formic acid]	330
Cn1c(-c2cn(CC3CC3)nc2C(F)(F)F)cnc1C(=O)Nc1ccc(C(=O)N2CCN(C(=O)N[C@H]3C[C@@H](N)C3)CC2)c(Cl)c1 [Example 169, rac-N-((1s,3s)-3-aminocyclobutyl)-4-(2-chloro-4-(5-(1-(cyclopropylmethyl)-3-(trifluoromethyl)-1H-pyrazol-4-yl)-1-methyl-1H-imidazole-2-carboxamido)benzoyl)piperazine-1-carboxamide Hydrochloride]	245
